Data published in article PMC9569447 (International Journal of Molecular Sciences, 2022).
Where “and” joins values, the source holds several entries; their conditions need not be identical. Equal entries are not always repeated. Where two headings read alike, the source gives them in different places. Numbered stars: 1 amine (or outer) side, 2 acyl side, 3 side chain; on linkers, the order of the positions; unused ones are H or OH. Bridge positions count the residues as written; N and C are the ends. Square brackets hold non-standard residues; d marks the D form. Side chains are listed from the residue outwards. Peptide text beside a SMILES is read from it. * marks the point of attachment. PEG8 = NCCOCCOCCOCCOCCOCCOCCOCCOCCC(=O)O; Palmitoyl = CCCCCCCCCCCCCCCC(=O)*; hCys = N[C@@H](CCS)C(=O)O; X1 = O=C(CC[*:2])[*:1]

Columns and labels:
[1] = biological target: T1, hOXTR (Homo sapiens, UniProt P30559); assay: In vitro functional assay at the OXT receptor (Ca2+ flux, fluorometric imaging plate reader); format: cell-based; details: ratio of EC50 values hOXTR/hV2R
T1 construct: expressed in transfected cells
T1 sequence (P30559 1-389): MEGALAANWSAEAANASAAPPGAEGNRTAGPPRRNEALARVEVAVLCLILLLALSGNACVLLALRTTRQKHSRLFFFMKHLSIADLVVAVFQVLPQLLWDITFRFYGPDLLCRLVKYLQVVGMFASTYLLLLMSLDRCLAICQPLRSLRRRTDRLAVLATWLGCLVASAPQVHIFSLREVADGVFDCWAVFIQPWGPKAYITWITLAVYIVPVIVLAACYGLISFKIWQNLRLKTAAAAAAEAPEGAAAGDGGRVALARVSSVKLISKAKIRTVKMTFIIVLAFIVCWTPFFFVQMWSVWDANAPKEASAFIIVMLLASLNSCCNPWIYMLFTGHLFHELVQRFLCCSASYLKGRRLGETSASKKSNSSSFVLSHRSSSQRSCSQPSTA
Procedure: In a typical experimental protocol, stably transfected Chinese hamster ovary (CHO) hOTR NFAT bLac cells were plated at a density of 10,000 cells/well in a 384-well plate in growth medium (Dulbecco’s modified Eagle’s medium + Glutamax (Thermo Fisher Scientific, Waltham, MA, USA), 10% dialyzed fetal bovine serum). The next day calcium-sensitive, fluo-4 dye (Invitrogen, Carlsbad, CA, USA) and probenecid (Invitrogen; 2.5 mM) was dissolved in 20 mL warm dye loading buffer (Hanks’ balanced salt solution with calcium and magnesium, 20 mM Hepes, pH 7.4) and added to each well. Plates were incubated for 60–120 min in a 37 °C cell incubator to allow cells to uptake the dye. […] After dye-loading, the cell plates were placed on the fluorometric imaging plate reader. A total of […] of test compound was added to the […] of dye on the cells, and intracellular Ca^2+ was monitored for 90 s. Intracellular Ca^2+ concentrations were calculated as the maximum increase over basal levels. Responses were normalized to control responses. Data were analyzed by curve fitting.

[2] = tested on: diet-induced obese (DIO) Sprague Dawley rats; format: in vivo
Description: Male Sprague Dawley rats were fed 60% HF diet (formula: D12492; Research Diets, Inc; New Brunswick, NJ, USA; 5.21 kcal/g) for 16 weeks prior to the start of the study. Rats were then singly housed in BioDAQ cages (Research Diets, Inc.; New Brunswick, NJ, USA) and allowed to acclimate to their new environment for 10 days. Baseline measures of body weight, food intake and water intake were taken for one week to balance the groups and create feeding pairs. Each group (n = 6 animals/group) averaged 714.47 ± 81.60 g at baseline (Table 3).
Effects of ASK2131 were compared to a vehicle-treated group, OXT-treated group, as well as a pair-fed control group. Three days of baseline measures were taken before subcutaneous treatment administration began on day 4 of the study. Assessments were made to body weight, food intake and water intake. ASK2131 was administered at 50 nmol/kg throughout the entire study period. […] OXT-treated animals were started at 50 nmol/kg dose for two days, followed by 150 nmol/kg, then 300 nmol/kg, until ending at 600 nmol/kg for the remainder of the study.

[3] = tested on: UCP1; assay: Gene expression of UCP1 in IWAT and IBAT (qRT-PCR); format: in vivo, rat
Description: IWAT and IBAT were homogenized using a TissueLyser LT (Qiagen, Hilden, Germany). RNA was extracted from the tissue lysates using the RNeasy Lipid Mini Kit (mfg. # 74804; Qiagen, Hilden, Germany) and reverse transcribed using the high-capacity cDNA kit (mfg. # 4368814; Applied Biosystems, Waltham, MA, USA). qRT-PCR was completed on the mRNA samples using the Applied Biosystems StepOnePlus System (Applied Biosystems, Waltham, MA, USA). All samples were normalized to the cycle threshold value of 18S mRNA. The following TaqMan® probes (Applied Biosystems, Waltham, MA, USA) were used in this study: 18S (cat. # Hs99999901_s1), UCP1 (cat. # Rn00562126_m1), and Cox8b (cat. # Rn00562884_m1). Analysis was completed using the delta CT method.

[4] = tested on: diet-induced obese (DIO) Sprague Dawley rats; assay: Dose escalation study: body weight, food and water intake; format: in vivo, rat
Description: Male DIO Sprague Dawley rats (n = 4) were fed 60% HF diet (formula: D12492; Research Diets, Inc., New Brunswick, NJ, USA; 5.21 kcal/g) for 16 weeks prior to the start of the study. Rats were changed to being singly housed and allowed to acclimate for at least one week prior to the start of this study. Animals averaged 844.15 ± 99.95 g at baseline. Baseline measures of body weight, food intake, and water intake were taken for 6 days before drug administration began. Doses for the dose escalation study included 1, 2, 5, 10, 20, 50, and 100 nmol/kg. Body weight, food and water intake were assessed just prior to the start of the dark cycle.

[5] = in vivo; details: male, Sprague Dawley, rat, sc
Procedure: (§1) Whole blood samples were immediately centrifuged at 4 °C; separated plasma (~100 uL) was pipetted into micro centrifuge tubes, flash frozen on dry ice, and stored at −80 °C. Quantitative analysis plasma samples were performed by Alturas Analytics (Moscow, ID, USA) via peptide extraction from acidified plasma with acetonitrile followed by LC-MS/MS analysis.

[6] = Pharmacokinetics after subcutaneous administration to rats; details: sc, 300 nmol/kg
Procedure: as §1

[7] = male, Sprague Dawley, rat, plasma

## CCCCCCCCCCCCCCCC(=O)NCCOCCOCCOCCOCCOCCOCCOCCOCCC(=O)NCCCC[C@H](NC(=O)CNC(=O)[C@@H]1CCSCCC(=O)N[C@@H](Cc2ccc(O)cc2)C(=O)N[C@@H]([C@@H](C)CC)C(=O)N[C@@H](CCC(N)=O)C(=O)N[C@@H](CC(N)=O)C(=O)N1)C(=O)NCC(N)=O [ASK2131] (YIQN[hCys]GK([PEG8-Palmitoyl])G-NH2; linker N-5 via X1)
[1]
  Ratio hOXTR/hV2R: 3.06
[2]; 50 nmol/kg, first 8 days of treatment
  decrease in food intake: 35%
[2]; 50 nmol/kg, last 8 days of treatment
  reduction in food intake: 25%
[2]; 50 nmol/kg, whole 22-day treatment
  average decline in food intake: 28%
[2]; after 2 days of drug administration, 50 nmol/kg sc, 95% CI −6.52 to −1.15%, p = 0.0011
  body weight, predicted mean difference (PMD) vs vehicle-treated group: −3.83%
[2]; after 2 days of drug administration, both 50 nmol/kg sc, 95% CI −6.45 to −1.08%, p = 0.0014
  body weight, predicted mean difference (PMD) vs OXT-treated group: −3.77%
[2]; after 22 days once daily sc, ASK2131 50 nmol/kg, OXT titrated 50 to 600 nmol/kg, n = 6, mean ± SEM
  Posttreatment body weight: 676 ± 42 g
[2]; after 22 days vs baseline, once daily sc, ASK2131 50 nmol/kg, OXT titrated 50 to 600 nmol/kg, n = 6, mean ± SEM
  % change in body weight: −6.6 ± 1.3% and −6.6 ± 1.3 ^c,d %
[2]; after 22 days, ASK2131 50 nmol/kg sc daily, mean ± standard error
  body weight reduction compared to baseline: 6.6 ± 1.3%
[2]; after 22 days, ASK2131 50 nmol/kg/d, 95% CI −15.6 to −7.4, p < 0.0001
  body weight change, mean difference (MD) vs vehicle: −11.5%
[2]; after 22 days, ASK2131 50 nmol/kg/d, 95% CI −1031 to −213.1, p < 0.0008
  cumulative food intake, mean difference (MD) vs vehicle: -621.9 kcal
[2]; day 3, 50 nmol/kg/d sc
  reduction of food intake compared to baseline: 39 ± 9%
[2]; day 3, 50 nmol/kg/d sc, 95% CI −80.47 to −11.51%, p = 0.0102
  food intake, predicted mean difference (PMD) vs vehicle-treated group: −45.99%
[2]; rat, in vivo
  tolerability: well tolerated
  water intake: without relevant changes of water intake
[2]; study completion, 22 days, ASK2131 50 nmol/kg, OXT titrated up to 600 nmol/kg
  body weight reduction (weight loss) vs vehicle at end of treatment: 11.5%
[3]; IWAT and IBAT, result in words
  gene expression (UCP1, Cox8b) in comparison to the vehicle treated group: none of the examined genes showed a significant response
[3]; interscapular brown adipose tissue, qRT-PCR normalized to 18S, p = 0.011
  UCP1 expression in IBAT, mean rank difference (MRD), ASK2131 relative to OXT treatment: −12.5
[3]; qRT-PCR normalized to 18S, 95% CI −4.23 to 0.42, p = 0.014
  UCP1 expression in IWAT, mean difference (MD), ASK2131 relative to OXT treatment: −2.32
[4]; DIO rats, at doses < 2 nmol/kg and > 5 nmol/kg
  2-day averaged food intake reduction relative to baseline: 20–25%
[4]; DIO rats, once daily sc doses rising every two days from 1 to 100 nmol/kg, average per rat over the treatment period
  loss in body weight compared to baseline: 8.4%
[4]; at 2 nmol/kg, after only four treatments
  decrease in body weight compared to baseline: ~ 4%
[4]; one rat with severe diarrhea was terminated and excluded, result in words
  adverse response: No other animals treated with ASK2131 showed any signs of an adverse response
[4]; with increased dosing of ASK2131, result in words
  water intake: not significantly different from baseline
[5]
  half-life: 2.3 h
[6]; [7]
  Cmax: 276 nM
  Tmax: 4 h
  clearance: 1.2 mL/min/kg
[6]; male lean Sprague Dawley rats, n = 5 per group, LC-MS/MS
  Cmax (total maximal plasma concentration): 276 nM
[6]; male lean Sprague Dawley rats, n = 5 per group, plasma, LC-MS/MS
  Tmax: 4 h
